Structures are written as SMILES.

One data set has as its system CFPAC-1. Nature of the data set: Pancreatic cancer cell growth, 24 h. The format is cell-based, human. The conditions noted are these: CFPAC-1, escalating concentrations. How it is done:
(§1) Cell growth was determined in the human pancreatic cancer cell lines AsPC-1, CFPAC-1, Capan-2, Panc-1 and MIA PaCa-2 after treatment with escalating concentrations of P-FTS 35 for 24 h.

The next data set has as its system Capan-2. Put plainly: Pancreatic cancer cell growth, 24 h. The format is cell-based, human. The conditions noted are these: Capan-2, escalating concentrations. How it is done: as §1
The test system of the next data set is MIA PaCa-2. Nature of the data set: Pancreatic cancer cell growth, 24 h. The format is cell-based, human. The conditions noted are these: MIA PaCa-2, escalating concentrations. How it is done:
as §1

Another data set has as its system Panc-1. Nature of the data set: Pancreatic cancer cell growth, 24 h. The data set is classed as cell-based, human. The conditions noted are these: Panc-1, escalating concentrations. How it is done: as §1
Another data set relates to AsPC-1. Nature of the data set: Pancreatic cancer cell growth, 24 h. The format is cell-based, human. The conditions noted are these: AsPC-1, escalating concentrations. How it is done:
as §1

For data set [1], the system named is RAF/MEK/ERK and PI3K/AKT pathways. Nature of the data set: Immunoblots of Ras downstream effectors in Panc-1 cells. The data set is classed as cell-based, human. The source says:
C: Immunoblots of p-c-RAF, c-RAF, p-MEK, MEK, p-AKT and AKT in whole cell protein extracts from Panc-1 cells treated with P-FTS 35 as indicated. Loading control: β-actin.
(§2) In the following experiments it was examined whether the pancreatic cancer growth inhibitory effect of P-FTS 35 is associated with down regulation of Ras signaling. For this purpose, we used the Ras-GTP pull down assay.

The test system of another data set is MIA PaCa-2 cells. Nature of the data set: Pancreatic cancer xenograft model in nude mice. The data set is classed as in vivo. The conditions noted are these: for reduction of tumor volume growth: day 25. How it is done:
The in vivo chemotherapeutic potential of P-FTS 35 was assessed using a pancreatic cancer xenograft model. MIA PaCa-2 cells were injected subcutaneously into the flank areas of nude mice. When palpable tumors were observed, the mice received P-FTS 35, 50 or 100 mg/kg/d by oral gavage in corn oil or just corn oil (control) for 25 days. On day 25 of treatment, P-FTS 35, 50 mg/kg/d, and P-FTS 35, 100 mg/kg/d reduced the tumor volume growth by 62% and 65%, respectively (p<0.05; FIG. 5).

A further data set has as its system p-ERK1/2. Put plainly: Immunostaining of xenograft tissue sections. The data set is classed as in vivo, nude mice. The conditions noted are these: compared to control. How it is done: C: Growth of xenograft tumors treated without or with P-FTS 35 and stained for p-ERK expression. The percentage of p-ERK positive cells/field were determined and expressed as the mean±SEM (*P<0.03).
(§3) The inhibition of Ras by P-FTS 35 was further confirmed in vivo. The Ras-GTP pull down assay was used to test the capacity of P-FTS 35 to inhibit active Ras in fresh protein lysates from MIA PaCa-2 xenografts. Compared to controls, P-FTS 35, 50 and 100 mg/kg reduced RAS activation in xenografts by 62% and 70%, respectively (p<0.01, for both; FIG. 8A).

The test system of data set [2] is Ras. Put plainly: Ras-GTP pull down assay in lysates from MIA PaCa-2 xenografts. The format is in vivo, nude mice. The conditions noted are these: compared to controls. How it is done:
as §3

For data set [3], the system named is Ras. Put plainly: Ras-GTP pull down assay in Panc-1 cells. The data set is classed as cell-based, human. The conditions noted are these: 24 h.
Text: as §2

Data set [4] can be described thus: 3-week oral toxicity in BALB/c mice. The format is in vivo. How it is done:
The toxicity of P-FTS 35 in mice was further examined. Groups of 6 week-old female BALB/c mice (5 mice/group) were given by oral gavage once a day for 3 weeks P-FTS 35: 0, 75, 150, 250 and 350 mg/kg. […] The (sub-chronic) maximum tolerated dose of P-FTS 35 (3-wk period of observation) was determined to be at least 350 mg/kg/d.

For a further data set, the system named is p-c-RAF. Put plainly: Immunostaining of xenograft tissue sections. The data set is classed as in vivo, nude mice. The conditions noted are these: compared to control.
A further data set has as its system p-ERK and p-AKT. Nature of the data set: Immunoblotting of MIA PaCa-2 xenografts. The format is in vivo, nude mice. How it is done: B: Immunoblots of p-ERK, ERK, p-AKT and AKT in whole cell protein extracts from MIA PaCa-2 xenografts. Loading control: β-actin.
as §3

Data set [5] has as its system liver microsomes.
The next data set addresses CYP 2D6 (Homo sapiens, UniProt P10635). Put plainly: Metabolism by recombinant human CYP isoforms. The conditions noted are these: recombinant human CYP 25 pmol/ml, 37° C., NADPH-regenerating solution. The format is in vitro ADME.
Data set [6] can be described thus: Levels of PA and metabolites in blood and xenografts by HPLC. The data set is classed as in vivo, mice. The conditions noted are these: for metabolites detected in plasma and xenograft tumors: mice treated with PA or ASA. How it is done:
The levels of PA and some of its metabolites in blood and xenografts from these mice were determined by HPLC according to the methods described by G. Xie et al. (Br J Pharmacol. 2012; 167(1):222-32).

Another data set addresses CYP 3A4 (Homo sapiens, UniProt P08684). Nature of the data set: Metabolism by recombinant human CYP isoforms. The format is in vitro ADME. The conditions noted are these: recombinant human CYP 25 pmol/ml, 37° C., NADPH-regenerating solution.
For the next data set, the target named is CYP 2C9 (Homo sapiens, UniProt P11712). Put plainly: Metabolism by recombinant human CYP isoforms. The data set is classed as in vitro ADME. The conditions noted are these: recombinant human CYP 25 pmol/ml, 37° C., NADPH-regenerating solution.
Sequence of CYP 2C9 (P11712 whole entry, canonical isoform): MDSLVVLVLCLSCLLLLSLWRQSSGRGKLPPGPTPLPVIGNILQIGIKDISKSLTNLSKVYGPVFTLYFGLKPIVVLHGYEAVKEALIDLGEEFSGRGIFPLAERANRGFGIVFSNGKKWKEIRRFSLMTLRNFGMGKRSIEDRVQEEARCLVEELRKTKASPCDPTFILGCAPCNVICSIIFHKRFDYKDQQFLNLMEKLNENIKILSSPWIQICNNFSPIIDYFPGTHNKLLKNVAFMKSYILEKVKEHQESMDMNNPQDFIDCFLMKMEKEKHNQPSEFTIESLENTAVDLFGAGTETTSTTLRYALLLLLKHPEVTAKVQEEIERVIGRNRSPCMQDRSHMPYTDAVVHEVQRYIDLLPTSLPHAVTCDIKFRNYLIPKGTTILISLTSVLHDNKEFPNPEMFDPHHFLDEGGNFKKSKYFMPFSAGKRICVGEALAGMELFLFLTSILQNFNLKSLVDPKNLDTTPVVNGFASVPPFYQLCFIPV
A further data set deals with CYP 2C19 (Homo sapiens, UniProt P33261). Nature of the data set: Metabolism by recombinant human CYP isoforms. The data set is classed as in vitro ADME. The conditions noted are these: recombinant human CYP 25 pmol/ml, 37° C., NADPH-regenerating solution.
Sequence of CYP 2C19 (P33261 whole entry, canonical isoform): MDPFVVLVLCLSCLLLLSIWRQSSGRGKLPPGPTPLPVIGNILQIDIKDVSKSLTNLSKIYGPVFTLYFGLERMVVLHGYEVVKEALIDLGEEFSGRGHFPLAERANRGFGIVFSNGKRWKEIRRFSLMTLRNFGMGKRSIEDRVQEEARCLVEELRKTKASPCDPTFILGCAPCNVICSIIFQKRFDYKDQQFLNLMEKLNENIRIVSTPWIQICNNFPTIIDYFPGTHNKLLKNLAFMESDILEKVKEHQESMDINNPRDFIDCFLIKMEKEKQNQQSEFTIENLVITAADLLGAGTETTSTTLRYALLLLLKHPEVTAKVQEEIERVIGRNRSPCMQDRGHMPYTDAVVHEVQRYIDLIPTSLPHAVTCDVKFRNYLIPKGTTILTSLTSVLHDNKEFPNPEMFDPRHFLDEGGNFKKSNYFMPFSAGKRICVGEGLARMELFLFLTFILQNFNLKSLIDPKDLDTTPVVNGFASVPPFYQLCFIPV
For another data set, the target named is CYP 1A2 (Homo sapiens, UniProt P05177). Put plainly: Metabolism by recombinant human CYP isoforms. The data set is classed as in vitro ADME. The conditions noted are these: recombinant human CYP 25 pmol/ml, 37° C., NADPH-regenerating solution.
Sequence of CYP 1A2 (P05177 whole entry, canonical isoform): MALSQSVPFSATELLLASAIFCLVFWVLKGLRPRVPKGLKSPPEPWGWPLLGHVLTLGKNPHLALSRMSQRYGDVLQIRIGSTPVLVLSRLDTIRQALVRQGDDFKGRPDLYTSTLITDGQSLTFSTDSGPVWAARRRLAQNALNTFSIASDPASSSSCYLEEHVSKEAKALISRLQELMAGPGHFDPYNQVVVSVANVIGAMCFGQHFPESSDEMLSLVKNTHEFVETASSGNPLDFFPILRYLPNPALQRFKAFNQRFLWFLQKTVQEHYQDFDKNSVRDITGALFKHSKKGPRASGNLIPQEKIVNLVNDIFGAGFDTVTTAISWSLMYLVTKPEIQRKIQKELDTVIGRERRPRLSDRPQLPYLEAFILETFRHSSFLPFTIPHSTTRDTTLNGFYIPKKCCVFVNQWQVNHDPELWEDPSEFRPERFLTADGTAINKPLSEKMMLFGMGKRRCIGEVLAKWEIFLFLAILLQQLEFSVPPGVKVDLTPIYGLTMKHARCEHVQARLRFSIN
Data set [7] can be described thus: Tolerated dose in mice (PA, ASA). The format is in vivo. How it is done:
The ability of phospho-aspirin (PA) to prevent breast cancer (BC) was evaluated using MDA-MB-231 human BC cells xenografted into one of the mammary glands of nude mice (orthotopic xenografts). PA was administered orally, 120 mg/kg/d 1 wk prior to inoculating the cells (the standard prevention protocol); acetylsalicylic acid (ASA) was given at an equimolar dose of 40 mg/kg/d. This was the highest dose of ASA that these mice could tolerate on a long-term basis. The dose of PA represents <10% of its maximum tolerated dose (MTD≧1,600 mg/kg), but was chosen so that a comparison between PA and ASA was possible.

Data set [8] has as its system MDA-MB-231 human BC cells. Put plainly: Prevention of orthotopic MDA-MB-231 breast cancer xenografts in nude mice. The format is in vivo. The conditions noted are these: PA 120 mg/kg/d orally, from 1 wk prior to inoculating the cells.
Data set [9] has as its system liver microsomes. Nature of the data set: Metabolism in liver microsomes (HPLC).
For data set [10] the following is noted: cited from earlier work.

Sequence of CYP 2D6 (P10635 whole entry, canonical isoform): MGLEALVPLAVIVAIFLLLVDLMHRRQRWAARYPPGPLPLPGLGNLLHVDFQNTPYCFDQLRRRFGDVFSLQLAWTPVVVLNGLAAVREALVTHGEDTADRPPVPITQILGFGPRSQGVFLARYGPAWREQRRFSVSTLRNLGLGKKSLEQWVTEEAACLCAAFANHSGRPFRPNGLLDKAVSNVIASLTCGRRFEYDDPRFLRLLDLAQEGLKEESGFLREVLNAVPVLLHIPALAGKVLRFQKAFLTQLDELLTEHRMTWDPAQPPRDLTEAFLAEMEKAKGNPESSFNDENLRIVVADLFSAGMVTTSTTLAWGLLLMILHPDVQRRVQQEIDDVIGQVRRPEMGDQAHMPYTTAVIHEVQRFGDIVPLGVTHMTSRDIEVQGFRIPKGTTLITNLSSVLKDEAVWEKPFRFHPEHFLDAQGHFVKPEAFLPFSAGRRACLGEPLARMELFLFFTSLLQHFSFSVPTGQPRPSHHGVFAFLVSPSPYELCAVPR
Sequence of CYP 3A4 (P08684 whole entry, canonical isoform): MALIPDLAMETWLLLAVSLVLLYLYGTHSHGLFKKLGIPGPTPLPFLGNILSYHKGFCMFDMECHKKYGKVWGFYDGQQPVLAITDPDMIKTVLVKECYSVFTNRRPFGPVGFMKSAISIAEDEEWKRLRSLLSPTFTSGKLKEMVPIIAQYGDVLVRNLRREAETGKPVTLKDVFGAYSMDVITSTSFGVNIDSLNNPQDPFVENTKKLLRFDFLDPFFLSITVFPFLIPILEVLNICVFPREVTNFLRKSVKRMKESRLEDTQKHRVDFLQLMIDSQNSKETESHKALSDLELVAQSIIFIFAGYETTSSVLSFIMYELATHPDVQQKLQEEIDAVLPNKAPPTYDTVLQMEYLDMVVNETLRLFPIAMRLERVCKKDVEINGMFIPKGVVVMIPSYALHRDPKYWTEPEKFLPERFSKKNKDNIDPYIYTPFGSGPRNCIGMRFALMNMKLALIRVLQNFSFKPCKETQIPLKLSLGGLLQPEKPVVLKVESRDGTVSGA

Regarding `CCOP(=O)(OCC)OCCCCOC(=O)c1ccccc1SC/C=C(\C)CC/C=C(\C)CCC=C(C)C`, the “cell growth, % control” value in the data set on CFPAC-1, in the data set on Capan-2, with MIA PaCa-2, in the data set with Panc-1 and in the data set with AsPC-1 was “decreases pancreatic cancer cell growth in a concentration-dependent manner” in each case. In addition, in data set [1], the “inhibition of the RAF/MEK/ERK and PI3K/AKT pathways” value was “significant time-dependent inhibition”. Also, the entries for the “reduction of tumor volume growth” value with MIA PaCa-2 cells (50 mg/kg/d oral gavage in corn oil) and with MIA PaCa-2 cells (100 mg/kg/d oral gavage in corn oil) were 62% and 65%, respectively. In addition, the “tolerability in the efficacy study” value with MIA PaCa-2 cells (50 or 100 mg/kg/d, 25 days) is “well tolerated”. Besides, in the data set with MIA PaCa-2 cells (50 or 100 mg/kg/d, 25 days), the “weight loss or other signs of toxicity in the efficacy study” value is “no weight loss or other signs of toxicity”. Further, in the data set with p-ERK1/2, the “reduction of expression of p-ERK1/2” value was 71%. Further, the “reduction of RAS activation in xenografts” value in the data set with Ras [2] (50 mg/kg) was 62%; in the data set on Ras [2] (100 mg/kg), 70%. Also, the “decrease of Ras-GTP compared with the parent compound (FTS)” value with Ras [3] (50 μM) is on record as “more pronounced”. Also, in the data set with Ras [3], the “inhibition of active Ras (Ras-GTP)” value is reported as “significantly inhibited active Ras (Ras-GTP) in a concentration-dependent manner”. Further, the “weight loss or other signs of toxicity” value in data set [4] (75, 150, 250 and 350 mg/kg oral gavage once a day for 3 weeks, female BALB/c mice) is “no weight loss or other signs of toxicity”. For the same molecule, the MTD at 3 weeks in data set [4] (female, BALB/c, mouse, in vivo, 3-wk period of observation, oral gavage, read-out: (sub-chronic) maximum tolerated dose) is ≥ 350 mg/kg/day. The “reduction of expression of p-c-RAF” value in the data set on p-c-RAF amounted to 73%. Besides, the “p-ERK and p-AKT in xenografts by immunoblotting” value in the data set on p-ERK and p-AKT is “inhibition of p-ERK and p-AKT”.

With `CC(=O)Oc1ccccc1C(=O)O` [ASA, acetylsalicylic acid], the “oxidation by liver microsomes” value with liver microsomes [5] is “not appreciably oxidized”. Also, the “oxidation (conversion of PSA to 5-OH-PSA) by CYP 2D6” value at CYP 2D6 is reported as “cannot be oxidized”. Also, the “metabolites detected in plasma and xenograft tumors” value in data set [6] is on record as “Only salicylic acid (SA) was detected”. Also, the “oxidation by CYP 3A4” value at CYP 3A4 is recorded as “cannot be oxidized”. The “oxidation by CYP 2C9” value on CYP 2C9 was “cannot be oxidized”. On CYP 2C19, the “oxidation (conversion of PSA to 5-OH-PSA) by CYP 2C19” value was “cannot be oxidized”. Besides, the “oxidation by CYP 1A2” value at CYP 1A2 is listed as “cannot be oxidized”. For the same molecule, the “highest dose that these mice could tolerate on a long-term basis” value in data set [7] (nude mice) stood at 40 mg/kg/day.

Turning to `CCOP(=O)(OCC)OCCCCOC(=O)c1ccccc1OC(C)=O` [PA, phospho-aspirin], the “intact PA in plasma or xenografts” value in data set [6] (mice treated with PA 120 mg/kg/d, HPLC) is given as “No intact PA in either plasma or xenografts was detected”. Moreover, the “metabolites detected in plasma and xenograft tumors” value in data set [6] was “Only salicylic acid (SA) was detected”. Moreover, the “difference in SA levels between PA and ASA groups” value in [6] (plasma and xenografts) is reported as “no difference in SA levels”. Also, the “maximum tolerated dose (MTD)” value in data set [7] (mice) is ≥ 1,600 mg/kg. Besides, in [8], the “average tumor volume reduced compared to controls” value is recorded as 62%. Moreover, in data set [8] (of the 20 treated mice), the “treated mice that had no tumors” value worked out at 20% and the “treated mice that had tumors <100 mm^3” value is listed as 30%. Besides, the “major metabolites detected in liver microsomes” value with liver microsomes [9] (HPLC) is “phospho-salicylic acid [PSA], 3-OH-PSA and 5-OH-PSA”. In addition, the “deacetylation in liver microsomes” value in the data set with liver microsomes [9] (PA-treated liver microsomes) was “readily deacetylated”.

On to `O=C(O)c1ccccc1O` [SA, salicylic acid], for which the “oxidation by liver microsomes” value in the data set with liver microsomes [5] is recorded as “not appreciably oxidized”.

Turning to `CC1=C(CC(=O)O)c2cc(F)ccc2/C1=C\c1ccc([S+](C)[O-])cc1` (stereo not drawn) [sulindac], in data set [10], the “gastrointestinal side effects, share of patients” value is listed as “up to 20%”; the “skin rash and pruritus, share of patients” value is recorded as 5%.

These data come from US20140121185A1 (Medicon Pharmaceuticals, Inc., priority 2012, published 2014).
